Measurements as given in US20240245793A1, “PSD-95 INHIBITORS AND USES THEREOF” (priority 2021, published 2024).

System: HeLa cells stably expressing HaloGFP
Assay: Chloroalkane penetration assay (CAPA), membrane permeability and cellular uptake
Assay type: cell-based
Conditions: not given
Method in brief: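 Pulse-chase CAPA: HeLa cells with cytosolic HaloGFP exposed to serially diluted chloroalkane-tagged compound for 4 h at 37 °C, washed, chased with TAMRA-CA (5 μM) for 15 min, then read by flow cytometry. CP50 is half-maximal red fluorescence from normalized dose-response curves; signal falls as penetration rises.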

In order of rising CP50:
1. CC(C)C[C@H](NC(=O)[C@@H](NC(=O)[C@H](CCC(=O)O)NC(=O)[C@H](CCCCN)NC(=O)CCOCCOCCN(CCOCCOCCC(=O)N[C@@H](CCCCN)C(=O)N[C@@H](CCC(=O)O)C(=O)N[C@H](C(=O)N[C@@H](CC(C)C)C(=O)N[C@H](C(=O)O)C(C)C)[C@@H](C)O)C(=O)[C@H](CCCNC(=N)N)NC(=O)[C@H](CCCNC(=N)N)NC(=O)[C@H](CCCNC(=N)N)NC(=O)[C@H](CCCNC(=N)N)NC(=O)CCC(=O)NCCOCCOCCCCCCCl)[C@@H](C)O)C(=O)N[C@H](C(=O)O)C(C)C [Compound 74]  0.37 ± 0.08 µM
2. CC(C)C[C@H](NC(=O)[C@@H](NC(=O)[C@H](CCC(=O)O)NC(=O)[C@H](CCCCN)NC(=O)CCOCCOCCN(CCOCCOCCC(=O)N[C@@H](CCCCN)C(=O)N[C@@H](CCC(=O)O)C(=O)N[C@H](C(=O)N[C@@H](CC(C)C)C(=O)N[C@H](C(=O)O)C(C)C)[C@@H](C)O)C(=O)[C@H](CCCNC(=N)N)NC(=O)[C@H](CCCNC(=N)N)NC(=O)[C@H](CCCNC(=N)N)NC(=O)[C@H](CCCNC(=N)N)NC(=O)[C@H](CCCNC(=N)N)NC(=O)[C@H](CCCNC(=N)N)NC(=O)CCC(=O)NCCOCCOCCCCCCCl)[C@@H](C)O)C(=O)N[C@H](C(=O)O)C(C)C [Compound 70]  0.51 ± 0.08 µM
3. CC(C)C[C@H](NC(=O)[C@@H](NC(=O)[C@H](CCC(=O)O)NC(=O)[C@H](CCCCN)NC(=O)CCOCCOCCN(CCOCCOCCC(=O)N[C@@H](CCCCN)C(=O)N[C@@H](CCC(=O)O)C(=O)N[C@H](C(=O)N[C@@H](CC(C)C)C(=O)N[C@H](C(=O)O)C(C)C)[C@@H](C)O)C(=O)[C@H](CCCNC(=N)N)NC(=O)[C@H](CCCNC(=N)N)NC(=O)[C@H](CCCNC(=N)N)NC(=O)[C@H](CCCNC(=N)N)NC(=O)[C@H](CCCNC(=N)N)NC(=O)[C@H](CCCNC(=N)N)NC(=O)[C@H](CCCNC(=N)N)NC(=O)CCC(=O)NCCOCCOCCCCCCCl)[C@@H](C)O)C(=O)N[C@H](C(=O)O)C(C)C [Compound 68]  0.58 ± 0.09 µM
4. CC(C)C[C@H](NC(=O)[C@@H](NC(=O)[C@H](CCC(=O)O)NC(=O)[C@H](CCCCN)NC(=O)CCOCCOCCN(CCOCCOCCC(=O)N[C@@H](CCCCN)C(=O)N[C@@H](CCC(=O)O)C(=O)N[C@H](C(=O)N[C@@H](CC(C)C)C(=O)N[C@H](C(=O)O)C(C)C)[C@@H](C)O)C(=O)[C@H](CCCNC(=N)N)NC(=O)[C@H](CCCNC(=N)N)NC(=O)[C@H](CCCNC(=N)N)NC(=O)[C@H](CCCNC(=N)N)NC(=O)[C@H](CCCNC(=N)N)NC(=O)CCC(=O)NCCOCCOCCCCCCCl)[C@@H](C)O)C(=O)N[C@H](C(=O)O)C(C)C [Compound 72]  0.66 ± 0.14 µM
5. CC[C@H](C)[C@H](NC(=O)CCOCCOCCN(CCOCCOCCC(=O)N[C@H](C(=O)N[C@@H](CCC(=O)O)C(=O)N[C@H](C(=O)N[C@@H](CC(=O)O)C(=O)N[C@H](C(=O)O)C(C)C)[C@@H](C)O)[C@@H](C)CC)C(=O)[C@H](CCCNC(=N)N)NC(=O)[C@H](CCCNC(=N)N)NC(=O)[C@H](CCCNC(=N)N)NC(=O)[C@H](CCCNC(=N)N)NC(=O)[C@H](CCCNC(=N)N)NC(=O)CCC(=O)NCCOCCOCCCCCCCl)C(=O)N[C@@H](CCC(=O)O)C(=O)N[C@H](C(=O)N[C@@H](CC(=O)O)C(=O)N[C@H](C(=O)O)C(C)C)[C@@H](C)O [Compound 65]  1.17 ± 0.37 µM
6. CC[C@H](C)[C@H](NC(=O)CCOCCOCCN(CCOCCOCCC(=O)N[C@H](C(=O)N[C@@H](CCC(=O)O)C(=O)N[C@H](C(=O)N[C@@H](CC(=O)O)C(=O)N[C@H](C(=O)O)C(C)C)[C@@H](C)O)[C@@H](C)CC)C(=O)[C@H](CCCNC(=N)N)NC(=O)[C@H](CCCNC(=N)N)NC(=O)[C@H](CCCNC(=N)N)NC(=O)CCC(=O)NCCOCCOCCCCCCCl)C(=O)N[C@@H](CCC(=O)O)C(=O)N[C@H](C(=O)N[C@@H](CC(=O)O)C(=O)N[C@H](C(=O)O)C(C)C)[C@@H](C)O [Compound 66]  3.71 ± 0.30 µM
7. CC(C)C[C@H](NC(=O)[C@@H](NC(=O)[C@H](CCC(=O)O)NC(=O)[C@H](CCCCN)NC(=O)CCOCCOCCN(CCOCCOCCC(=O)N[C@@H](CCCCN)C(=O)N[C@@H](CCC(=O)O)C(=O)N[C@H](C(=O)N[C@@H](CC(C)C)C(=O)N[C@H](C(=O)O)C(C)C)[C@@H](C)O)C(=O)[C@H](CCCNC(=N)N)NC(=O)[C@H](CCCNC(=N)N)NC(=O)[C@H](CCCNC(=N)N)NC(=O)CCC(=O)NCCOCCOCCCCCCCl)[C@@H](C)O)C(=O)N[C@H](C(=O)O)C(C)C [Compound 75]  7.36 ± 0.31 µM

Molecular target: T1, plasmin (Homo sapiens, UniProt P00747)
T1 construct: Tissue plasminogen factor (tPA), which generates plasmin from plasminogen
Assay: In vitro plasmin stability assay
Assay type: in vitro ADME
Conditions: isolated enzyme plasmin
Procedure: At selected time points during the incubation, the ligands were extracted from 80 μL of assay matrix by treatment with 80 μL of 50% acetonitrile (ACN). The samples were filtered and analysed by UPLC to determine the amount of ligand remaining. LC-MS analysis was performed to confirm ligand integrity and identify cleavage sites.

T1 sequence (P00747 581-810 limits assumed, species assumed): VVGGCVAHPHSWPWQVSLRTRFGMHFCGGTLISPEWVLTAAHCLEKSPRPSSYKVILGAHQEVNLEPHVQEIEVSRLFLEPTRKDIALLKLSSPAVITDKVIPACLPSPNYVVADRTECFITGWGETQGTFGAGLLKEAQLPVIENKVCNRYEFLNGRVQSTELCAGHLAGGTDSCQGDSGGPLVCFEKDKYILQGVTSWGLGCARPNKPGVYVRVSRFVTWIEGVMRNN
T1 sequence (P00747 97-580 partner limits assumed, species assumed): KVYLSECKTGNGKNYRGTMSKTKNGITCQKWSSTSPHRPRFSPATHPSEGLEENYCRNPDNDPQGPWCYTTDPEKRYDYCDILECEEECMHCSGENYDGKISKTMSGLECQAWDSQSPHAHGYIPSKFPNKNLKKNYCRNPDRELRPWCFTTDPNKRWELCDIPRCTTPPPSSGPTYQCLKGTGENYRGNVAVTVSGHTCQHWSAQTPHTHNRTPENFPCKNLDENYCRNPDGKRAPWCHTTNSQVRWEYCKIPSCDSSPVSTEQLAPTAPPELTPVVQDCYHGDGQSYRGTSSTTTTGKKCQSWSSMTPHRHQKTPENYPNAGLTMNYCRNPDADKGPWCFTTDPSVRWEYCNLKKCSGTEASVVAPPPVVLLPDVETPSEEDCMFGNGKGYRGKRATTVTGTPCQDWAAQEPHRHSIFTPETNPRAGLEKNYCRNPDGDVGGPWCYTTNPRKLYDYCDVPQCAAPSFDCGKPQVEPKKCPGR

In order of rising half-life at 100 μM:
1. CC(=O)N[C@@H](CCCNC(=N)N)C(=O)N[C@@H](CCCNC(=N)N)C(=O)N[C@@H](CCCNC(=N)N)C(=O)N[C@@H](CCCNC(=N)N)C(=O)N[C@@H](CCCNC(=N)N)C(=O)N[C@@H](CCCNC(=N)N)C(=O)N[C@@H](CCCNC(=N)N)C(=O)N[C@@H](CCCNC(=N)N)C(=O)N[C@@H](CCCNC(=N)N)C(=O)N(CCOCCOCCC(=O)N[C@@H](CCCCN)C(=O)N[C@@H](CCC(=O)O)C(=O)N[C@H](C(=O)N[C@@H](CCCNC(=N)N)C(=O)N[C@H](C(=O)O)C(C)C)[C@@H](C)O)CCOCCOCCC(=O)N[C@@H](CCCCN)C(=O)N[C@@H](CCC(=O)O)C(=O)N[C@H](C(=O)N[C@@H](CCCNC(=N)N)C(=O)N[C@H](C(=O)O)C(C)C)[C@@H](C)O [Compound 29]  16.7 ± 2.85 h
2. CC(=O)N[C@@H](CCCNC(=N)N)C(=O)N[C@@H](CCCNC(=N)N)C(=O)N[C@@H](CCCNC(=N)N)C(=O)N[C@@H](CCCNC(=N)N)C(=O)N[C@@H](CCCNC(=N)N)C(=O)N[C@@H](CCCNC(=N)N)C(=O)N[C@@H](CCCNC(=N)N)C(=O)N[C@@H](CCCNC(=N)N)C(=O)N[C@@H](CCCNC(=N)N)C(=O)N(CCOCCOCCC(=O)N[C@@H](CCCCN)C(=O)N[C@@H](CCC(=O)O)C(=O)N[C@H](C(=O)N[C@H](C(=O)N[C@H](C(=O)O)C(C)C)[C@@H](C)O)[C@@H](C)O)CCOCCOCCC(=O)N[C@@H](CCCCN)C(=O)N[C@@H](CCC(=O)O)C(=O)N[C@H](C(=O)N[C@H](C(=O)N[C@H](C(=O)O)C(C)C)[C@@H](C)O)[C@@H](C)O [Compound 25]  19.2 ± 3.38 h
3. CC(=O)N[C@@H](CCCNC(=N)N)C(=O)N[C@@H](CCCNC(=N)N)C(=O)N[C@@H](CCCNC(=N)N)C(=O)N[C@@H](CCCNC(=N)N)C(=O)N[C@@H](CCCNC(=N)N)C(=O)N[C@@H](CCCNC(=N)N)C(=O)N[C@@H](CCCNC(=N)N)C(=O)N[C@@H](CCCNC(=N)N)C(=O)N[C@@H](CCCNC(=N)N)C(=O)N(CCOCCOCCC(=O)N[C@@H](CCCCN)C(=O)N[C@@H](CCC(=O)O)C(=O)N[C@H](C(=O)N[C@H](C(=O)N[C@H](C(=O)O)C(C)C)C(C)C)[C@@H](C)O)CCOCCOCCC(=O)N[C@@H](CCCCN)C(=O)N[C@@H](CCC(=O)O)C(=O)N[C@H](C(=O)N[C@H](C(=O)N[C@H](C(=O)O)C(C)C)C(C)C)[C@@H](C)O [Compound 27]  25.5 ± 9.63 h

Same assay, conditions: isolated enzyme plasmin; read-out: T1/2

CC[C@H](C)[C@H](NC(=O)CCOCCOCCN(CCOCCOCCC(=O)N[C@H](C(=O)N[C@@H](CCC(=O)O)C(=O)N[C@H](C(=O)N[C@@H](CC(=O)O)C(=O)N[C@H](C(=O)O)C(C)C)[C@@H](C)O)[C@@H](C)CC)C(=O)[C@H](CCCNC(=N)N)NC(=O)[C@H](CCCNC(=N)N)NC(=O)[C@H](CCCNC(=N)N)NC(=O)[C@H](CCC(N)=O)NC(=O)[C@H](CCCNC(=N)N)NC(=O)[C@H](CCCNC(=N)N)NC(=O)[C@H](CCCCN)NC(=O)[C@H](CCCCN)NC(=O)[C@H](CCCNC(=N)N)NC(=O)CNC(=O)[C@H](Cc1ccc(O)cc1)NC(C)=O)C(=O)N[C@@H](CCC(=O)O)C(=O)N[C@H](C(=O)N[C@@H](CC(=O)O)C(=O)N[C@H](C(=O)O)C(C)C)[C@@H](C)O [Compound 9] was tested, and the half-life was 3.82 ± 2.15 h.

Same assay, conditions: read-out: T1/2

CC[C@H](C)[C@H](NC(=O)CCOCCOCCN(CCOCCOCCC(=O)N[C@H](C(=O)N[C@@H](CCC(=O)O)C(=O)N[C@H](C(=O)N[C@@H](CC(=O)O)C(=O)N[C@H](C(=O)O)C(C)C)[C@@H](C)O)[C@@H](C)CC)C(=O)[C@H](CCCNC(=N)N)NC(=O)[C@H](CCCNC(=N)N)NC(=O)[C@H](CCCNC(=N)N)NC(=O)[C@H](CCC(N)=O)NC(=O)[C@H](CCCNC(=N)N)NC(=O)[C@H](CCCNC(=N)N)NC(=O)[C@H](CCCCN)NC(=O)[C@H](CCCCN)NC(=O)[C@H](CCCNC(=N)N)NC(=O)CNC(=O)[C@H](Cc1ccc(O)cc1)NC(C)=O)C(=O)N[C@@H](CCC(=O)O)C(=O)N[C@H](C(=O)N[C@@H](CC(=O)O)C(=O)N[C@H](C(=O)O)C(C)C)[C@@H](C)O [Compound 9] showed a half-life of 3.82 ± 2.15 h.
